Laboratory results published in PMC5607274, “An iterative compound screening contest method for identifying target protein inhibitors using the tyrosine-protein kinase Yes” (Scientific Reports, 2017).

Target: T1, human recombinant Yes [a.a. 2–543 (end)] (Homo sapiens, UniProt P07947)
T1 construct: human recombinant Yes [a.a; 2–543 (end)]; purchased BPS Bioscience 40488
Experiment: ADP-Glo kinase assay, inhibition rates of Yes phosphorylation activity (first and second screening)
Format: biochemical
Conditions: first screening; mean of n = 4 wells; 10 μmol L−1 compound
In short: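 Hits from a first pass were rescreened after re-dissolution from fresh powder. The first pass reported the mean inhibition rate of quadruplicate wells per compound. Activity was that of recombinant human Yes [a.a. 2–543] kinase, read out with the ADP-Glo ADP-detection method.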

T1 sequence (P07947 2-543): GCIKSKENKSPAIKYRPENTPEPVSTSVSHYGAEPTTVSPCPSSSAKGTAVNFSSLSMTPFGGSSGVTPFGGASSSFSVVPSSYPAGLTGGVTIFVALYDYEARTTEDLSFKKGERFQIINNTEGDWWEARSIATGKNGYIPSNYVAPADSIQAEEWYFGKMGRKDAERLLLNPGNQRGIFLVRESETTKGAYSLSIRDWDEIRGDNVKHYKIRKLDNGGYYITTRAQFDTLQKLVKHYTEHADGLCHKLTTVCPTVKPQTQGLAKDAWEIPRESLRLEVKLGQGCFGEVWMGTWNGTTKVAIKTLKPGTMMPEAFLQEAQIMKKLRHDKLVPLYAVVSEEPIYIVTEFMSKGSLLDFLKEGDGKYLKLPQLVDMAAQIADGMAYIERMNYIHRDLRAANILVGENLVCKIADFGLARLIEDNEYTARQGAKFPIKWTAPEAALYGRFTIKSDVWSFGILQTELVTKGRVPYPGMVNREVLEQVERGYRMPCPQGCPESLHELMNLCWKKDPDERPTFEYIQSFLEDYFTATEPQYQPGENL

SMILES | First screening IR (inhibition rate) [%]
Cc1ccc([N+](=O)[O-])c(N2CCC(NCCO)CC2)c1 [Compound Z1576995201] | -9
Cc1nccn1-c1cncc(N2CCC3(CCCC3)CC2)n1 [Compound Z1578863056] | 34
CC1CN(C(=O)OC(C)(C)C)C(C)CN1C(=O)Cc1csc(N2CCNC2=O)n1 (stereo not shown) [Compound Z1579018538] | 2
CC(NCc1ccnc(OC2CCOC2)c1)c1cccc(F)c1 (stereo not shown) [Compound Z1583197068] | 21
CCCn1nccc1NC(=O)CN(C)C(C)c1cccc(-c2ccncc2)c1 (stereo not shown) [Compound Z1587266149] | 17
Cc1n[nH]c(C)c1C1CCCCCN1C(=O)Nc1cnc(N(C)C)nc1 (stereo not shown) [Compound Z1590996465] | -1
Cc1cc(S(=O)(=O)N(C)CC(=O)N2CCC(O)CC2)cnc1Cl [Compound Z1591866613] | -1
Cc1cc(C(NCC(=O)Nc2cccc(C(=O)N(C)C)c2)C(C)C)c(C)s1 (stereo not shown) [Compound Z1592563027] | -2
CC(CN(C)Cc1ccccc1)Nc1nc(N)c2ccccc2n1 (stereo not shown) [Compound Z1593120476] | -10
COCc1nnc(-c2cccc(-c3nc(-c4cccs4)no3)c2)o1 [Compound Z1601587562] | 11
CC(O)(CNc1ccnc2c(F)cc(Br)cc12)CN1CCOCC1 (stereo not shown) [Compound Z1601616896] | -21
O=C(NCC(Cc1ccccc1)C(=O)O)c1ccc(-n2ccnc2)cc1 (stereo not shown) [Compound Z1603513622] | 15
CN(CCCc1nc2ccccc2[nH]1)C(=O)c1ccc(O)cc1F [Compound Z1614685203] | 9
N#Cc1ccc(C(=O)OCc2ccc(Br)cn2)[nH]1 [Compound Z1616590793] | 9
Cc1cc(NCc2nnc(C)n2C)c(C(N)=O)cc1F [Compound Z1618388683] | -35
NC(=O)c1ccc2[nH]cc(C3CCN(C(=O)c4cccs4)CC3)c2c1 [Compound Z1624201749] | -35
Cc1cc(N2CCCC(N3CCN(C(=O)c4ccncc4)CC3)C2=O)n(C)n1 (stereo not shown) [Compound Z1629496420] | 17
COc1cc(Br)c(CN(C)CCc2cnccn2)c(OC)c1 [Compound Z1632805805] | 7
CC1CC(CNC(=O)c2cccc(O)c2)CN1Cc1ccccc1 (stereo not shown) [Compound Z1633590863] | 1
Cn1c(=O)[nH]c(=O)c2cc(C(=O)OCCNc3ncccc3C#N)cnc21 [Compound Z1633934253] | -1
COc1cc(/C=C/C(=O)N2CCCC2c2c(C)nn(C)c2C)cc(Br)c1O (stereo not shown) [Compound Z1634598040] | 41
Cc1ccc(-c2noc(/C=C/c3cncc(O)c3)n2)cc1F [Compound Z1642148240] | -4
COc1ccc(-c2noc(/C=C/c3cncc(O)c3)n2)cc1 [Compound Z1642148255] | 3
Oc1cncc(/C=C/c2nc(-c3ccc(Oc4ccc(F)cc4)nc3)no2)c1 [Compound Z1642148338] | -13
Cc1ccc(NC2CCN(Cc3ccncc3)CC2)c(CN(C)C)c1 [Compound Z1642185485] | 2
COC(=O)Nc1ccc(NC(=O)C2CC2c2ccc(C(C)C)cc2)cc1F (stereo not shown) [Compound Z1646916001] | 7

Results, then the molecule that gave them:

First screening IR (inhibition rate) [%] | SMILES
6 | CC(Nc1ccc(Oc2cccc3cccnc23)cc1)C(N)=O (stereo not shown) [Compound Z1651676792]
3 | O=C(COc1ccccc1F)NCc1ccc2[nH]c(=O)[nH]c2c1 [Compound Z1654002148]
-9 | CC(O)C1CCN(C(=O)NCC2CC(C)N(Cc3ccccc3)C2)C1 (stereo not shown) [Compound Z1658298345]
7 | CC(C)(C)n1ncc2c(NCCc3nnc4n3CCCC4)ncnc21 [Compound Z1661117530]
10 | OC1CCC(Nc2ncnc3cccc(I)c23)CC1 (stereo not shown) [Compound Z1661333590]
-18 | COc1cccc(-c2cc(-c3ccc(C)cc3)c3ccccc3n2)c1 [Compound Z1664164245]
29 | CCCCn1nc(C)c(C(=O)N2CCC(C)(CN3CCN(C)CC3)CC2)c1Cl [Compound Z1667221615]
8 | CC(NC(=O)c1ccc2[nH]cnc2n1)c1ccc(-c2cncnc2)cc1 (stereo not shown) [Compound Z1669230171]
6 | Cc1cc(F)cc2[nH]c(C(=O)NC3CN(C(=O)OC(C)(C)C)CC3C#N)cc12 (stereo not shown) [Compound Z1671371372]
5 | CC(=O)[C@@H]1C[C@H](CC(=O)NCCc2ccn(-c3ccc(F)cc3)n2)C1(C)C [Compound Z1675157483]
48 | CC1CCN(c2nc(N)nc3nc[nH]c23)CCN1Cc1ccccc1 (stereo not shown) [Compound Z1675288656]
19 | O=C(NCCCc1c[nH]c2ccccc12)Nc1ccncc1F [Compound Z1677751393]
0 | O=C(NCCN1CCc2ccccc2C1)Nc1ccncc1F [Compound Z1677754180]
4 | O=C(NCc1cnn(Cc2ccccc2)c1)Nc1ccncc1F [Compound Z1677761301]
2 | COc1ccc(Br)c(CN(C)C(C)C2CCN(C)CC2)c1 (stereo not shown) [Compound Z1682981267]
0 | NC(=O)C(Nc1cnn(Cc2ccccc2)c1)c1ccc(F)cc1 (stereo not shown) [Compound Z1686719326]
9 | Cc1cnc(C)c(NCc2cccc(Cn3ccnc3C)c2)n1 [Compound Z1687428428]
15 | Cc1cnc(CCSc2ncc(-c3ccc(F)cc3)o2)cn1 [Compound Z1688195829]
-9 | CN(C)c1ccc(NC(=O)N(C)C2CS(=O)(=O)c3ccc(Cl)cc32)cn1 (stereo not shown) [Compound Z1688689058]
60 | Nc1nc(N2CC=C(c3ccccc3F)CC2)c2[nH]cnc2n1 [Compound Z1699229618]
-12 | CC(C)COCCCNS(=O)(=O)CCCS(=O)(=O)N(C)C [Compound Z1702883776]
-6 | CN(C)S(=O)(=O)CCCS(=O)(=O)N(C)C1CCC1 [Compound Z1720728610]
-10 | c1ccc(-c2nc(NCc3ccc(-n4cncn4)cc3)no2)cc1 [Compound Z1722673239]
17 | Cn1ccnc1C(O)(CCNC(=O)c1cccc(-c2cnc3[nH]c(=O)n(C)c3c2)c1)C(F)(F)F (stereo not shown) [Compound Z1723428243]
-9 | O=C(O)c1cccc(/C=C/c2ccnnc2)c1 [Compound Z1728621359]
2 | C/C(=C/c1ccc2ncccc2c1)c1cnccn1 [Compound Z1728623559]
2 | CC1CC(CNC(=O)c2ccc(O)cc2F)CN1Cc1ccccc1 (stereo not shown) [Compound Z1735017324]
6 | Cn1cncc1CC(=O)Nc1ccc2nc(-c3cc(F)ccc3F)[nH]c2c1 [Compound Z1737110153]

Same assay, conditions: second screening, dissolved from fresh powder; n = 4; 10 μmol L−1 compound

SMILES | Second screening IR (inhibition rate) [%]
Cc1nccn1-c1cncc(N2CCC3(CCCC3)CC2)n1 [Compound Z1578863056] | 0
